From ChEMBL document CHEMBL1151324, “Cytotoxic geranyl stilbenes from Macaranga schweinfurthii” (J Nat Prod, 1998)
Converted amounts (≈) assume the structure as drawn.

Assays:
[1] = test system: MOLT-4; assay: Cytotoxicity against human MOLT4 cells; format: functional; conditions: for TGI: read-out: pTGI (converted)
[2] = test system: PC-3; assay: Cytotoxicity against human PC3 cells; format: functional; conditions: for CC50: read-out: pLC50 (the source's name) (converted); for TGI: read-out: pTGI (converted)
[3] = test system: ACHN; assay: Cytotoxicity against human ACHN cells; format: functional; conditions: for TGI: read-out: pTGI (converted)
[4] = test system: OVCAR-8; assay: Cytotoxicity against human OVCAR8 cells; format: functional; conditions: for TGI: read-out: pTGI (converted)
[5] = test system: CAKI-1; assay: Cytotoxicity against human Caki1 cells; format: functional; conditions: for TGI: read-out: pTGI (converted)
[6] = test system: OVCAR-5; assay: Cytotoxicity against human OVCAR5 cells; format: functional; conditions: for TGI: read-out: pTGI (converted)
[7] = test system: SF-295; assay: Cytotoxicity against human SF295 cells; format: functional
[8] = test system: SN12C; assay: Cytotoxicity against human SN12C cells; format: functional; conditions: for TGI: read-out: pTGI (converted)
[9] = test system: HL-60; assay: Cytotoxicity against human HL60 cells; format: functional; conditions: for TGI: read-out: pTGI (converted)
[10] = test system: A549; assay: Cytotoxicity against human A549 cells after 48 hrs; format: functional, cell-based; conditions: A549, 48 h
[11] = test system: NCI-H23; assay: Cytotoxicity against human NCI-H23 cells; format: functional; conditions: for TGI: read-out: pTGI (converted)
[12] = test system: HOP-92; assay: Cytotoxicity against human HOP92 cells; format: functional; conditions: for TGI: read-out: pTGI (converted)
[13] = Cytotoxicity against human 786-O cells; format: functional; conditions: for GI50 / LC50: 786-0; for TGI: 786-0, read-out: pTGI (converted)
[14] = test system: SF-295; assay: Cytotoxicity against human SF295 cells after 1 hr; format: functional, cell-based; conditions: SF-295, 1 h
[15] = test system: DU-145; assay: Cytotoxicity against human DU145 cells; format: functional; conditions: for CC50: read-out: pLC50 (the source's name) (converted); for TGI: read-out: pTGI (converted)
[16] = test system: CCRF-CEM; assay: Cytotoxicity against human CCRF-CEM cells; format: functional; conditions: for TGI: read-out: pTGI (converted)
[17] = test system: SR; assay: Cytotoxicity against human SR cells; format: functional; conditions: for TGI: read-out: pTGI (converted)
[18] = test system: SF-539; assay: Cytotoxicity against human SF539 cells; format: functional; conditions: for TGI: read-out: pTGI (converted)
[19] = test system: SNB-19; assay: Cytotoxicity against human SNB19 cells; format: functional; conditions: for TGI: read-out: pTGI (converted)
[20] = test system: T47D; assay: Cytotoxicity against human T47D cells; format: functional; conditions: for CC50: read-out: pLC50 (the source's name) (converted); for TGI: read-out: pTGI (converted)

**Q.** For CC(C)=CCC/C(C)=C/Cc1c(O)cc(/C=C/c2cc(O)c3c(c2)C[C@@H]2C(C)(C)[C@H](O)[C@H](O)C[C@@]2(C)O3)cc1O [SCHWEINFURTHIN A], which GI50 [1] is on record?
**A.** 0.0151 µM

**Q.** What about the LC50 [1] of the same molecule?
**A.** 57.5 µM

**Q.** And the TGI [1]?
**A.** 1.29 µM

**Q.** And the GI50 [2]?
**A.** 0.17 µM

**Q.** What about the CC50 [2] of the same molecule?
**A.** 36.3 µM

**Q.** And the TGI [2]?
**A.** 12.9 µM

**Q.** What about the GI50 [3] of the same molecule?
**A.** 2.09 µM

**Q.** What about the LC50 [3] of the same molecule?
**A.** 39.8 µM

**Q.** And the TGI [3]?
**A.** 15.8 µM

**Q.** What about the GI50 [4] of the same molecule?
**A.** 5.13 µM

**Q.** What about the LC50 [4] of the same molecule?
**A.** 57.5 µM

**Q.** And the TGI [4]?
**A.** 20 µM

**Q.** What about the GI50 [5] of the same molecule?
**A.** 0.129 µM

**Q.** What about the LC50 [5] of the same molecule?
**A.** 56.2 µM

**Q.** And the TGI [5]?
**A.** 19.1 µM

**Q.** What about the GI50 [6] of the same molecule?
**A.** 6.46 µM

**Q.** And the LC50 (concentration killing 50% of cells) [6]?
**A.** 45.7 µM

**Q.** And the TGI [6]?
**A.** 20 µM

**Q.** What about the LC50 [7] of the same molecule?
**A.** 17 µM

**Q.** And the GI50 ([7]; read-out: GI50)?
**A.** 0.011 µM

**Q.** What about the TGI ([7]; read-out: TGI) of the same molecule?
**A.** 0.052 µM

**Q.** And the GI50 ([7]; read-out: pGI50 (converted))?
**A.** 0.011 µM

**Q.** And the TGI ([7]; read-out: pTGI (converted))?
**A.** 0.0525 µM

**Q.** What about the GI50 [8] of the same molecule?
**A.** 6.92 µM

**Q.** What about the LC50 [8] of the same molecule?
**A.** 61.7 µM

**Q.** What about the TGI [8] of the same molecule?
**A.** 25.1 µM

**Q.** And the GI50 [9]?
**A.** 0.0158 µM

**Q.** What about the LC50 [9] of the same molecule?
**A.** 38.9 µM

**Q.** And the TGI [9]?
**A.** 0.129 µM

**Q.** And the IC50 [10]?
**A.** 3.7 µg/mL (≈ 6.74 µM)

**Q.** What about the GI50 [11] of the same molecule?
**A.** 3.24 µM

**Q.** And the LC50 [11]?
**A.** 51.3 µM

**Q.** What about the TGI [11] of the same molecule?
**A.** 18.2 µM

**Q.** What about the GI50 [12] of the same molecule?
**A.** 2.57 µM

**Q.** And the LC50 [12]?
**A.** 46.8 µM

**Q.** What about the TGI [12] of the same molecule?
**A.** 15.1 µM

**Q.** And the GI50 [13]?
**A.** 0.01 µM

**Q.** What about the LC50 [13] of the same molecule?
**A.** 19.1 µM

**Q.** What about the TGI [13] of the same molecule?
**A.** 3.02 µM

**Q.** What about the IC50 [14] of the same molecule?
**A.** 47 µg/mL (≈ 85.7 µM)

**Q.** And the GI50 [15]?
**A.** 1.2 µM

**Q.** And the CC50 [15]?
**A.** 53.7 µM

**Q.** What about the TGI [15] of the same molecule?
**A.** 15.1 µM

**Q.** What about the GI50 [16] of the same molecule?
**A.** 0.01 µM

**Q.** And the LC50 [16]?
**A.** 74.1 µM

**Q.** What about the TGI [16] of the same molecule?
**A.** 2.09 µM

**Q.** What about the GI50 [17] of the same molecule?
**A.** 0.0708 µM

**Q.** What about the LC50 [17] of the same molecule?
**A.** 74.1 µM

**Q.** What about the TGI [17] of the same molecule?
**A.** 18.2 µM

**Q.** What about the GI50 [18] of the same molecule?
**A.** 0.01 µM

**Q.** And the LC50 [18]?
**A.** 8.13 µM

**Q.** And the TGI [18]?
**A.** 1.7 µM

**Q.** And the GI50 [19]?
**A.** 0.257 µM

**Q.** And the LC50 [19]?
**A.** 49 µM

**Q.** What about the TGI [19] of the same molecule?
**A.** 20 µM

**Q.** And the GI50 [20]?
**A.** 3.24 µM

**Q.** And the CC50 [20]?
**A.** 97.7 µM

**Q.** And the TGI [20]?
**A.** 21.9 µM

**Q.** What does the source list for COc1cc(/C=C/c2cc(O)c(C/C=C(\C)CCC=C(C)C)c(O)c2)cc2c1O[C@]1(C)C[C@@H](O)[C@@H](O)C(C)(C)[C@H]1C2 [SCHWEINFURTHIN B]?
**A.** GI50 [1]: 0.0479 µM; LC50 [1]: 11 µM; TGI [1]: 5.25 µM; GI50 [2]: 0.251 µM; CC50 [2]: 42.7 µM; TGI [2]: 12.9 µM; GI50 [3]: 4.27 µM; LC50 [3]: 43.7 µM; TGI [3]: 20 µM; GI50 [4]: 11 µM; LC50 [4]: 64.6 µM; TGI [4]: 26.9 µM; GI50 [5]: 1.91 µM; LC50 [5]: 75.9 µM; TGI [5]: 28.8 µM; GI50 [6]: 7.08 µM; LC50 (concentration killing 50% of cells) [6]: 44.7 µM; TGI [6]: 19.1 µM; LC50 [7]: 3.89 µM; GI50 ([7]; read-out: pGI50 (converted)): 0.024 µM; TGI ([7]; read-out: pTGI (converted)): 0.288 µM; GI50 [8]: 12 µM; LC50 [8]: 67.6 µM; TGI [8]: 28.8 µM; GI50 [9]: 0.0372 µM; LC50 [9]: > 100 µM; TGI [9]: 1.29 µM; IC50 [10]: 7.1 µg/mL (≈ 12.6 µM); GI50 [11]: 3.24 µM; LC50 [11]: 51.3 µM; TGI [11]: 19.1 µM; GI50 [12]: 0.933 µM; LC50 [12]: 41.7 µM; TGI [12]: 12.9 µM; GI50 [13]: 0.0219 µM; LC50 [13]: 14.1 µM; TGI [13]: 1.91 µM; IC50 [14]: > 100 µg/mL; GI50 [15]: 3.39 µM; CC50 [15]: 50.1 µM; TGI [15]: 19.1 µM; GI50 [16]: 0.229 µM; LC50 [16]: > 100 µM; TGI [16]: 6.31 µM; GI50 [17]: 0.257 µM; LC50 [17]: 58.9 µM; TGI [17]: 12 µM; GI50 [18]: 0.151 µM; LC50 [18]: 14.1 µM; TGI [18]: 2 µM; GI50 [19]: 0.398 µM; LC50 [19]: 40.7 µM; TGI [19]: 15.8 µM; GI50 [20]: 11 µM; CC50 [20]: > 100 µM; TGI [20]: 69.2 µM
